Data taken from patent US7868043B2, “Mesophasic forms of (3S)-aminomethyl-5-methyl-hexanoic acid prodrugs and methods of use” (Xenoport, Inc., priority 2008, dated 2011).

Assay: Intracolonic bioavailability in monkeys
Type: in vivo, Cynomologous monkeys
Conditions: monkey, whole blood; bioavailability of pregabalin (F %, (SD)) after intracolonic administration, 10 mg-eq pregabalin/kg, suspension, 4 male monkeys, blood LC-MS/MS; salts before crystallization; read-out: Intracolonic Bioavailability Fic (%)
Protocol: Male Cynomologous monkeys weighing about 2.3 kg were used in the studies. Monkeys were fasted overnight prior to the study until 4 hours after dosing. Water was provided ad libitum.
Calcium (3S)-{[(1R)-isobutanoyloxyethoxy]carbonylaminomethyl}-5-methyl-hexanoate (5), calcium (3S)-{[(1S)-isobutanoyloxyisobutoxy]carbonylaminomethyl}-5-methyl-hexanoate (6), or calcium (3S)-{[(1R)-benzoyloxyethoxy]carbonylaminomethyl}-5-methyl-hexanoate (7) (obtained as described in Examples 4, 8, and 12, respectively, and before crystallization according to Examples 13, 14, and 15, respectively) were prepared as a suspension (21.4 mg/mL) in 0.5% methyl cellulose/0.1% Tween-80 in NaH2PO4 pH 7.02.
Calcium (3S)-{[(1R)-isobutanoyloxyethoxy]carbonylaminomethyl}-5-methyl-hexanoate (5), calcium (3S)-{[(1S)-isobutanoyloxyisobutoxy]carbonylaminomethyl}-5-methyl-hexanoate (6), or calcium (3S)-{[(1R)-benzoyloxyethoxy]carbonylaminomethyl}-5-methyl-hexanoate (7) (1 mL/kg; 10 mg-eq pregabalin/kg) were administered intracolonically to 4 monkeys. […]
Blood samples were analyzed by a sensitive and specific LC-MS/MS method for simultaneous determination of (3S)-{[(1R)-isobutanoyloxyethoxy]carbonylaminomethyl}-5-methyl-hexanoate, (3S)-{[(1S)-isobutanoyloxyisobutoxy]carbonylaminomethyl}-5-methyl-hexanoate, or (3S)-{[(1R)-benzoyloxyethoxy]carbonylaminomethyl}-5-methyl-hexanoate; and pregabalin. […]

Work on `CC(C)C[C@H](CN)CC(=O)O` [Pregabalin, (3S)-aminomethyl-5-methyl-hexanoic acid] yielded a bioavailability of 4%.
